The text below walks through data of PMC12755129 (Blood, 2025).

This test has as its target LRRC8A (SWELL1), LRRC8 volume-regulated anion channel complex (Homo sapiens, UniProt Q8IWT6). Briefly: patch clamp of hypotonic swell-activated VRAC/ATP currents in MEG-01 cells. It counts as cell-based. On the technique in general: Patch clamp records ionic current or voltage across a cell membrane.

pIC50: −log10 of the molar value.

Sequence of LRRC8A (SWELL1), LRRC8 volume-regulated anion channel complex (Q8IWT6 whole entry): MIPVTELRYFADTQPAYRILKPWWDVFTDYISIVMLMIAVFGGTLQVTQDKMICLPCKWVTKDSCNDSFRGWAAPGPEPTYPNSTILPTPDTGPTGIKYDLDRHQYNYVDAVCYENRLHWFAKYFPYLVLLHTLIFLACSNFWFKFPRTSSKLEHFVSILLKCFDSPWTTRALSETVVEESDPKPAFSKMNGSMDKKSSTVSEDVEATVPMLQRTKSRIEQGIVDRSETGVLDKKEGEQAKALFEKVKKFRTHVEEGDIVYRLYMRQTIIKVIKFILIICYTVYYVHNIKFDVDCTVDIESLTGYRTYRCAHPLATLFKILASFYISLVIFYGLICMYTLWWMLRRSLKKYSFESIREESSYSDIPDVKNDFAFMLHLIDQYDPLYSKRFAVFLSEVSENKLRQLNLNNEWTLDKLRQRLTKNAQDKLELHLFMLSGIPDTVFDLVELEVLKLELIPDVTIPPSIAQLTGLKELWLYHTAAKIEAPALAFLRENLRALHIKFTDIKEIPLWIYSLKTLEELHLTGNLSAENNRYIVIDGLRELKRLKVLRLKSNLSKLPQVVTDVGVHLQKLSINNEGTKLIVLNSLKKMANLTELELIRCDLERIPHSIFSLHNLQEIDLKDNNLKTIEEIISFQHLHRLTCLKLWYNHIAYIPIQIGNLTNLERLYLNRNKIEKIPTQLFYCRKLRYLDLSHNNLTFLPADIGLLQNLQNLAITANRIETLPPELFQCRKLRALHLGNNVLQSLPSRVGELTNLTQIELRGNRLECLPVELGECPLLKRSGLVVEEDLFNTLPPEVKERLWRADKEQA
Sequence of LRRC8A (SWELL1), LRRC8 volume-regulated anion channel complex (Q6P9F7 whole entry partner): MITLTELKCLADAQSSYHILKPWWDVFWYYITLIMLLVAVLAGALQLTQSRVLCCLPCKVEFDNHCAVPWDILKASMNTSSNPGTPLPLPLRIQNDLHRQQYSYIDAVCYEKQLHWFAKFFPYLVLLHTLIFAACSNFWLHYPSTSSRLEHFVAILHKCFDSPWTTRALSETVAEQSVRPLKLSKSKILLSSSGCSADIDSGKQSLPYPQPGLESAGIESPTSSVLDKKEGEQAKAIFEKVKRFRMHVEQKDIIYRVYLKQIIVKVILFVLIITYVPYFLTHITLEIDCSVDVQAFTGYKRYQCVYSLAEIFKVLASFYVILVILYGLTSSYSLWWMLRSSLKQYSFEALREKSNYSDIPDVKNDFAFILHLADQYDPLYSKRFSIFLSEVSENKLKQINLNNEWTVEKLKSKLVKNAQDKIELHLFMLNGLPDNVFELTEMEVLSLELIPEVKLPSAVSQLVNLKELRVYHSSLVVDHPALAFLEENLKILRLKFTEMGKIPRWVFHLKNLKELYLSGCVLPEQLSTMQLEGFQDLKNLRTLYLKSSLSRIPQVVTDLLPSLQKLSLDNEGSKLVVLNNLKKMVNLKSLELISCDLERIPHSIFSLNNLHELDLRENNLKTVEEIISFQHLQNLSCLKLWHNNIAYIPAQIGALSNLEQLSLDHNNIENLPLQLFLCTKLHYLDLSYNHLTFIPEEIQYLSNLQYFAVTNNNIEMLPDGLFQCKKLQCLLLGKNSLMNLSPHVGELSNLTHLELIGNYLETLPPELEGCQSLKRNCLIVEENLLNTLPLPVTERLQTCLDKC
Sequence of LRRC8A (SWELL1), LRRC8 volume-regulated anion channel complex (Q8TDW0 whole entry partner): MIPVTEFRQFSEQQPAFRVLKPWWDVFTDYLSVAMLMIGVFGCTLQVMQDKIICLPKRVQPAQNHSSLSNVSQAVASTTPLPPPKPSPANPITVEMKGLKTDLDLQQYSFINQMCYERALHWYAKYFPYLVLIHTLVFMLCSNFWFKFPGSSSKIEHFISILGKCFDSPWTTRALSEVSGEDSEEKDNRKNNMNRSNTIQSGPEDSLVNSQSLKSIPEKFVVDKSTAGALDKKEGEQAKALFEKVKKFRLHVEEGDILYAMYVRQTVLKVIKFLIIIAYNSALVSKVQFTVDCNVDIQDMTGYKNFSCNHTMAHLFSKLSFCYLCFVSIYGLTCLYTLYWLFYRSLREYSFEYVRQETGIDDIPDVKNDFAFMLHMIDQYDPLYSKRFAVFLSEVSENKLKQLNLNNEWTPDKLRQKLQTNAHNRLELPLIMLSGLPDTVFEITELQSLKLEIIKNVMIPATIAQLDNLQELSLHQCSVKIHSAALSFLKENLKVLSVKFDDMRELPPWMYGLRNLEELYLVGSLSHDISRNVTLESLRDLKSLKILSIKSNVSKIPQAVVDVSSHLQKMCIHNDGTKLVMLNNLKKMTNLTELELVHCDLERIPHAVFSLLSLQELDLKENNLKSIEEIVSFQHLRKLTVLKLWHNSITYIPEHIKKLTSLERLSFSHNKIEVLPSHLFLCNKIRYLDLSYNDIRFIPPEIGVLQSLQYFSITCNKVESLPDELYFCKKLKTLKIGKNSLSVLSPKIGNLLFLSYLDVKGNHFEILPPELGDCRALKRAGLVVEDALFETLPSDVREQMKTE
Sequence of LRRC8A (SWELL1), LRRC8 volume-regulated anion channel complex (Q7L1W4 whole entry partner): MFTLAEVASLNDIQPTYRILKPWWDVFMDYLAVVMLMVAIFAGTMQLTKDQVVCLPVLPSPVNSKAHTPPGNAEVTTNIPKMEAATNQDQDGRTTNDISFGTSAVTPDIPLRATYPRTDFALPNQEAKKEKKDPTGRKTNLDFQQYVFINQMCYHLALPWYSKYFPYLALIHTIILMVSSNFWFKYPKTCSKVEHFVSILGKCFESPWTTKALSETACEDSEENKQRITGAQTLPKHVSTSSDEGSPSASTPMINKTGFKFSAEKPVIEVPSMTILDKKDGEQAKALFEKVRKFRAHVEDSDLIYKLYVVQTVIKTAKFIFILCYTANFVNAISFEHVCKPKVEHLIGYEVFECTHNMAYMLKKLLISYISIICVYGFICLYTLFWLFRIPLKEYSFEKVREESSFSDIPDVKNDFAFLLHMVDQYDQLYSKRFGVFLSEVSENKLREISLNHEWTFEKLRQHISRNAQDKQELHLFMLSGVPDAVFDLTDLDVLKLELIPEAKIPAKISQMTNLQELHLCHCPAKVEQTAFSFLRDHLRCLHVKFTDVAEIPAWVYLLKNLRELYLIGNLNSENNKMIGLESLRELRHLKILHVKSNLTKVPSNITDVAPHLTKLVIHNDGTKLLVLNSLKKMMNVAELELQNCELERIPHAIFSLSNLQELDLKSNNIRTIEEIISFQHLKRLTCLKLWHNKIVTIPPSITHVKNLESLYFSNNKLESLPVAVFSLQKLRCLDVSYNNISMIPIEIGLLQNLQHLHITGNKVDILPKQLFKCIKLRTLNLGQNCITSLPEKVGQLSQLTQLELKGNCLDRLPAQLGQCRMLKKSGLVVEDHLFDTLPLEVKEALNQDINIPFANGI

As for `CCCCC1(C2CCCC2)Cc2cc(OCCCC(=O)O)c(Cl)c(Cl)c2C1=O` (centres unmarked) [SN-401, 4-(2-butyl-6,7-dichloro-2-cyclopentylindan-1-on-5-yl)oxybutyric acid], the pIC50 – broadly, the negative decadic logarithm of the IC50, by convention in mol/L – was 5.82.

Molecule SN-406 gave a pIC50 of 6.00.
